The values that follow are results of earlier work, collected in patent US20070185067A1, “Ciclesonide and glycopyrronium combination” (Altana Pharma AG, priority 2004, published 2007).

Assay in data set [1]: not given
The source holds these as a separate data set.

The conditions of data set [2]: compared with budesonide.

With `CC(C)C(=O)OCC(=O)[C@@]12O[C@H](C3CCCCC3)O[C@@H]1C[C@H]1[C@@H]3CCC4=CC(=O)C=C[C@]4(C)[C@H]3[C@@H](O)C[C@@]12C` [Ciclesonide, [11β,16α(R)]-16,17-[(Cyclohexylmethylen)bis(oxy)]-11-hydroxy-21-(2-methyl-1-oxo-prop-oxy)pregna-1,4-dien-3,20-dion], the “metabolism by liver oxidases” value (liver oxidases) was “very high”. Also, the “concentration of the drug in the lungs” value (lungs) was “high”. Besides, where the note is “oral administration”, the “absorption after oral administration” value was “only moderately absorbed”. Also, the plasma half-life entry (plasma) is reported as “low plasma half-life”. For the same compound, the “systemic activity relative to budesonide” value in data set [1] (compared with budesonide) was “three times lower than that of budesonide”. For the same compound, the systemic activity entry in data set [1] (in vivo) is on record as “low systemic activity”. For the same compound, the “anti-inflammatory activity relative to budesonide” value in data set [2] is recorded as “higher”.
